Test results from PubChem BioAssay AID248 (DTP/NCI, 2004).
Values joined by “and” are separate entries in the source; they are usually repeats but may differ in a detail not shown here. Equal entries are not always repeated. Toxic doses and inconclusive results are not listed.

Tested on: L1210 leukemia ip in BDF1 mice, survival T/C
Test: NCI In Vivo Anticancer Drug Screen. Data for tumor model L1210 Leukemia (intraperitoneal) in B6D2F1 (BDF1) mice
Conditions: endpoint: mean survival time, higher = longer survival
In short: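 Each compound was tested against a transplantable tumor grown in mice. The endpoint was survival, with treated animals benchmarked against vehicle controls as a simple ratio.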

[1] = dose: 100.0 mg/kg/injection, schedule: Q01DX001 (ip), vehicle: saline
[2] = dose: 200.0 mg/kg/injection, schedule: Q01DX001 (ip), vehicle: saline
[3] = dose: 100.0 mg/kg/injection, schedule: Q01DX001 (ip), vehicle: carboxymethylcellulose (CMC)
[4] = dose: 200.0 mg/kg/injection, schedule: Q01DX001 (ip), vehicle: carboxymethylcellulose (CMC)

## OCC1OC(n2ncc3nccnc32)C(O)C1O (stereo unspecified)
dose: 50.0 mg/kg/injection, schedule: Q01DX005 (ip), vehicle: other
  T/C: 105 % of control
dose: 100.0 mg/kg/injection, schedule: Q01DX005 (ip), vehicle: other
  T/C: 105 % of control
dose: 200.0 mg/kg/injection, schedule: Q01DX005 (ip), vehicle: other
  T/C: 91 % of control

## COC(=O)C1(C(=O)OC)C2CC=C(C)CC21 (stereo unspecified)
dose: 100.0 mg/kg/injection, schedule: Q01DX009 (ip), vehicle: acetone
  T/C: 100 % of control
dose: 200.0 mg/kg/injection, schedule: Q01DX009 (ip), vehicle: acetone
  T/C: 98 % of control
dose: 400.0 mg/kg/injection, schedule: Q01DX009 (ip), vehicle: acetone
  T/C: 90 % of control

## COc1ccc(CCNC2CC3CCC2(C)C3(C)C)cc1OC (stereo unspecified)
[1]
  T/C: 100 % of control and 107 % of control
[2]
  T/C: 96 % of control
dose: 400.0 mg/kg/injection, schedule: Q01DX001 (ip), vehicle: saline
  T/C: 96 % of control

## CCOP(=O)(OCC)N1CC1c1ccccc1 (stereo unspecified)
dose: 75.0 mg/kg/injection, schedule: Q01DX001 (ip), vehicle: carboxymethylcellulose (CMC)
  T/C: 114 % of control

## CCN(c1ccccc1)c1ccc([N+](=O)[O-])cc1[N+](=O)[O-]
[3]
  T/C: 107 % of control
[4]
  T/C: 91 % of control
dose: 400.0 mg/kg/injection, schedule: Q01DX001 (ip), vehicle: carboxymethylcellulose (CMC)
  T/C: 100 % of control

## CN=C(NCCCOC)c1ccc(NC(=O)Nc2ccc(NC(=O)Nc3ccc(C(=NC)NCCCOC)cc3)cc2)cc1
dose: 1.87 mg/kg/injection, schedule: Q01DX Z (ip), vehicle: carboxymethylcellulose (CMC)
  T/C: 107 % of control
dose: 3.75 mg/kg/injection, schedule: Q01DX Z (ip), vehicle: carboxymethylcellulose (CMC)
  T/C: 96 % of control
dose: 7.5 mg/kg/injection, schedule: Q01DX Z (ip), vehicle: carboxymethylcellulose (CMC)
  T/C: 104 % of control
dose: 15.0 mg/kg/injection, schedule: Q01DX Z (ip), vehicle: carboxymethylcellulose (CMC)
  T/C: 102 % of control

## O=C1C=CC(=O)c2cc3ccccc3cc21
[3]
  T/C: 102 % of control

## COc1cc(NC(=O)c2ccc(Cl)cc2Cl)c(OC)cc1Cl
dose: 50.0 mg/kg/injection, schedule: Q01DX009 (ip), vehicle: saline with Tween-80
  T/C: 90 % of control
dose: 100.0 mg/kg/injection, schedule: Q01DX009 (ip), vehicle: saline with Tween-80
  T/C: 90 % of control
dose: 200.0 mg/kg/injection, schedule: Q01DX009 (ip), vehicle: saline with Tween-80
  T/C: 96 % of control

## O=[N+]([O-])c1cccc(S(=O)(=O)SC(Cl)(Cl)Cl)c1
dose: 25.0 mg/kg/injection, schedule: Q04DX003 (ip), vehicle: saline
  T/C: 96 % of control

## COc1cc(C=Nc2ccc(Cl)cc2)ccc1OC(=O)c1ccccc1
dose: 100.0 mg/kg/injection, schedule: Q04DX002 (ip), vehicle: saline with Tween-80
  T/C: 91 % of control
dose: 200.0 mg/kg/injection, schedule: Q04DX002 (ip), vehicle: saline with Tween-80
  T/C: 87 % of control

## NCc1ccc([N+](=O)[O-])cc1
dose: 50.0 mg/kg/injection, schedule: Q01DX009 (ip), vehicle: saline
  T/C: 93 % of control
[1]
  T/C: 96 % of control
dose: 100.0 mg/kg/injection, schedule: Q01DX009 (ip), vehicle: saline
  T/C: 96 % of control
dose: 100.0 mg/kg/injection, schedule: Q04DX003 (ip), vehicle: saline
  T/C: 101 % of control
[2]
  T/C: 104 % of control
dose: 200.0 mg/kg/injection, schedule: Q01DX009 (ip), vehicle: saline
  T/C: 110 % of control
dose: 200.0 mg/kg/injection, schedule: Q04DX003 (ip), vehicle: saline
  T/C: 93 % of control

## O=NN(CCBr)C(=O)NCCBr
dose: 3.0 mg/kg/injection, schedule: Q01DX Z (ip), vehicle: carboxymethylcellulose (CMC)
  T/C: 110 % of control
dose: 6.0 mg/kg/injection, schedule: Q01DX Z (ip), vehicle: carboxymethylcellulose (CMC)
  T/C: 107 % of control
dose: 6.25 mg/kg/injection, schedule: Q01DX001 (ip), vehicle: carboxymethylcellulose (CMC)
  T/C: 104 % of control
dose: 12.5 mg/kg/injection, schedule: Q01DX001 (ip), vehicle: carboxymethylcellulose (CMC)
  T/C: 103 % of control
dose: 25.0 mg/kg/injection, schedule: Q01DX001 (ip), vehicle: carboxymethylcellulose (CMC)
  T/C: 109 % of control
dose: 50.0 mg/kg/injection, schedule: Q01DX001 (ip), vehicle: carboxymethylcellulose (CMC)
  T/C: 114 % of control
dose: 50.0 mg/kg/injection, schedule: Q01DX Z (ip), vehicle: carboxymethylcellulose (CMC)
  T/C: 172 % of control
dose: 100.0 mg/kg/injection, schedule: Q01DX Z (ip), vehicle: carboxymethylcellulose (CMC)
  T/C: 156 % of control
[4]
  T/C: 178 % of control
dose: 300.0 mg/kg/injection, schedule: Q01DX001 (ip), vehicle: carboxymethylcellulose (CMC)
  T/C: 200 % of control
